Laboratory results reported in US7915291B2, “Hepatitis C virus inhibitors” (Bristol-Myers Squibb Company, priority 2002, dated 2011).

Columns and labels:
[1] = target: HCV NS3/4A protease complex, BMS strain (UniProt P27958, C1454S/C1711G, species not given/STRAIN_BMS); experiment: Recombinant HCV NS3/4A protease complex FRET peptide assay (BMS strain); assay type: biochemical, HCV genotype 1a; conditions: NS3/4A BMS strain; read-out: IC50 range
Summary of the method: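 Percent inhibition taken from the linear-range fluorescence slope relative to uninhibited control, read kinetically for about 15 min at 25° C. Enzyme (2-3 nM, BMS NS3/4A complex, lysine-tailed, Ni-NTA purified) met compound for 1 min before 2 μM FRET depsipeptide substrate started cleavage.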

[2] = tested on: HCV replicon in Huh7 cells; experiment: HCV replicon cell-based assay; set-up: species or system HCV strain 1B; conditions: Hepatitis C virus, Huh-7; HCV replicon, Huh7 cells; read-out: EC50 range
[3] = tested on: HCV; conditions: cited from earlier work

Row | Compound | IC50 [1] | EC50 [2] | sustained efficacy, share of patients ([3]; HCV infected patients, combination therapy) | clinical comparison as monotherapy ([3]; HCV patients, monotherapy, recent clinical results)
1 | C=C[C@@H]1C[C@]1(NC(=O)[C@@H]1C[C@@H](Oc2nccc3cc(OC)ccc23)CN1C(=O)[C@@H](NC(=O)OC(C)(C)CC)C(C)(C)C)C(=O)NS(=O)(=O)C1CCC1 [Compound 382] | < 100 nM | 100 to 1000 nM |  | 
2 | C=C[C@@H]1C[C@]1(NC(=O)[C@@H]1C[C@@H](Oc2nccc3cc(OC)ccc23)CN1C(=O)[C@@H](NC(=O)NC(C)(C)C)C(C)(C)C)C(=O)NS(=O)(=O)C1CCC1 [Compound 383] | < 100 nM | < 100 nM |  | 
3 | C=C[C@@H]1C[C@]1(NC(=O)[C@@H]1C[C@@H](Oc2nccc3cc(OC)ccc23)CN1C(=O)[C@@H](NC(=O)OC1(C)CCCC1)C(C)(C)C)C(=O)NS(=O)(=O)C1CCC1 [Compound 384] | < 100 nM | < 100 nM |  | 
4 | C=C[C@@H]1C[C@]1(NC(=O)[C@@H]1C[C@@H](Oc2nc(N3CCOCC3)cc3cc(OC)ccc23)CN1C(=O)[C@@H](NC(=O)OC(C)(C)C)C(C)(C)C)C(=O)NS(=O)(=O)C1CC1 [Compound 385] | < 100 nM | < 100 nM |  | 
5 | C=C[C@@H]1C[C@]1(NC(=O)[C@@H]1C[C@@H](Oc2ccnc3ccccc23)CN1C(=O)[C@@H](NC(=O)OC(C)(C)C)C(C)(C)C)C(=O)NS(C)(=O)=O [Compound 386] | 100 to 1000 nM | 1000 to 10000 nM |  | 
6 | C=C[C@@H]1C[C@]1(NC(=O)[C@@H]1C[C@@H](Oc2cc(C(F)(F)F)nc3ccc(C)cc23)CN1C(=O)[C@@H](NC(=O)OC(C)(C)C)C(C)(C)C)C(=O)NS(=O)(=O)C1CC1 [Compound 410] | < 100 nM | < 100 nM |  | 
7 | C=C[C@@H]1C[C@]1(NC(=O)[C@@H]1C[C@@H](Oc2cc(-c3ccccc3)ncn2)CN1C(=O)[C@@H](NC(=O)OC(C)(C)C)C(C)(C)C)C(=O)NS(=O)(=O)C1CC1 [Compound 411] | < 100 nM | 100 to 1000 nM |  | 
8 | C=C[C@@H]1C[C@]1(NC(=O)[C@@H]1C[C@@H](Oc2cc(-c3cccs3)ncn2)CN1C(=O)[C@@H](NC(=O)OC(C)(C)C)C(C)(C)C)C(=O)NS(=O)(=O)C1CC1 [Compound 412] | < 100 nM | < 100 nM |  | 
9 | C=C[C@@H]1C[C@]1(NC(=O)[C@@H]1C[C@@H](Oc2cc(-c3ccccc3)nc(-c3cccs3)c2)CN1C(=O)[C@@H](NC(=O)OC(C)(C)C)C(C)(C)C)C(=O)NS(=O)(=O)C1CC1 [Compound 413] | < 100 nM | < 100 nM |  | 
10 | C=C[C@@H]1C[C@]1(NC(=O)[C@@H]1C[C@@H](Oc2cc(-c3ccccc3)nc(-c3ccc(OC)cc3)c2)CN1C(=O)[C@@H](NC(=O)OC(C)(C)C)C(C)(C)C)C(=O)NS(=O)(=O)C1CC1 [Compound 414] | < 100 nM | < 100 nM |  | 
11 | C=C[C@@H]1C[C@]1(NC(=O)[C@@H]1C[C@@H](Oc2cc(-c3ccccc3)nc(-c3ccccc3)c2)CN1C(=O)[C@@H](NC(=O)OC(C)(C)C)C(C)(C)C)C(=O)NS(=O)(=O)C1CC1 [Compound 415] | < 100 nM | < 100 nM |  | 
12 | C=C[C@@H]1C[C@]1(NC(=O)[C@@H]1C[C@@H](Oc2cncc(-c3ccccc3)c2)CN1C(=O)[C@@H](NC(=O)OC(C)(C)C)C(C)(C)C)C(=O)NS(=O)(=O)C1CC1 [Compound 420] | < 100 nM | 100 to 1000 nM |  | 
13 | C=C[C@@H]1C[C@]1(NC(=O)[C@@H]1C[C@@H](Oc2ccnc(-c3ccccc3)c2)CN1C(=O)[C@@H](NC(=O)OC1CCCC1)C(C)(C)C)C(=O)NS(=O)(=O)C1CC1 [Compound 421] | < 100 nM | 100 to 1000 nM |  | 
14 | C=C[C@@H]1C[C@]1(NC(=O)[C@@H]1C[C@@H](Oc2cncc(-c3ccncc3)c2)CN1C(=O)[C@@H](NC(=O)OC(C)(C)C)C(C)(C)C)C(=O)NS(=O)(=O)C1CC1 [Compound 422] | < 100 nM | 1000 to 10000 nM |  | 
15 | C=C[C@@H]1C[C@]1(NC(=O)[C@@H]1C[C@@H](Oc2cncc(-c3ccoc3)c2)CN1C(=O)[C@@H](NC(=O)OC(C)(C)C)C(C)(C)C)C(=O)NS(=O)(=O)C1CC1 [Compound 424] | < 100 nM | 100 to 1000 nM |  | 
16 | C=C[C@@H]1C[C@]1(NC(=O)[C@@H]1C[C@@H](Oc2ccnc(Br)c2)CN1C(=O)[C@@H](NC(=O)OC1CCCC1)C(C)(C)C)C(=O)NS(=O)(=O)C1CC1 [Compound 425] | 100 to 1000 nM | 1000 to 10000 nM |  | 
17 | C=C[C@@H]1C[C@]1(NC(=O)[C@@H]1C[C@@H](Oc2ccnc(-c3ccoc3)c2)CN1C(=O)[C@@H](NC(=O)OC1CCCC1)C(C)(C)C)C(=O)NS(=O)(=O)C1CC1 [Compound 426] | < 100 nM | 100 to 1000 nM |  | 

Row | Compound | IC50 [1] | EC50 [2] | sustained efficacy, share of patients ([3]; HCV infected patients, combination therapy) | clinical comparison as monotherapy ([3]; HCV patients, monotherapy, recent clinical results)
18 | C=C[C@@H]1C[C@]1(NC(=O)[C@@H]1C[C@@H](Oc2ccnc(-c3ccc(F)cc3)c2)CN1C(=O)[C@@H](NC(=O)OC1CCCC1)C(C)(C)C)C(=O)NS(=O)(=O)C1CC1 [Compound 427] | < 100 nM | 100 to 1000 nM |  | 
19 | C=C[C@@H]1C[C@]1(NC(=O)[C@@H]1C[C@@H](Oc2ccnc(-c3ccc(OC)cc3)c2)CN1C(=O)[C@@H](NC(=O)OC1CCCC1)C(C)(C)C)C(=O)NS(=O)(=O)C1CC1 [Compound 428] | < 100 nM | 100 to 1000 nM |  | 
20 | C=C[C@@H]1C[C@]1(NC(=O)[C@@H]1C[C@@H](Oc2ccnc(-c3cccs3)c2)CN1C(=O)[C@@H](NC(=O)OC1CCCC1)C(C)(C)C)C(=O)NS(=O)(=O)C1CC1 [Compound 429] | < 100 nM | < 100 nM |  | 
21 | C=C[C@@H]1C[C@]1(NC(=O)[C@@H]1C[C@@H](Oc2ccnc(-c3ccsc3)c2)CN1C(=O)[C@@H](NC(=O)OC1CCCC1)C(C)(C)C)C(=O)NS(=O)(=O)C1CC1 [Compound 430] | < 100 nM | 100 to 1000 nM |  | 
22 | C=C[C@@H]1C[C@]1(NC(=O)[C@@H]1C[C@@H](Oc2ccnc(-c3nccs3)c2)CN1C(=O)[C@@H](NC(=O)OC1CCCC1)C(C)(C)C)C(=O)NS(=O)(=O)C1CC1 [Compound 431] | < 100 nM | 100 to 1000 nM |  | 
23 | C=C[C@@H]1C[C@]1(NC(=O)[C@@H]1C[C@@H](Oc2cncc(-c3nccs3)c2)CN1C(=O)[C@@H](NC(=O)OC(C)(C)C)C(C)(C)C)C(=O)NS(=O)(=O)C1CC1 [Compound 432] | < 100 nM | 100 to 1000 nM |  | 
24 | C=C[C@@H]1C[C@]1(NC(=O)[C@@H]1C[C@@H](Oc2cncc(-c3csc(C)n3)c2)CN1C(=O)[C@@H](NC(=O)OC(C)(C)C)C(C)(C)C)C(=O)NS(=O)(=O)C1CC1 [Compound 433] | 100 to 1000 nM | 1000 to 10000 nM |  | 
25 | C=C[C@@H]1C[C@]1(NC(=O)[C@@H]1C[C@@H](Oc2ccnc(-c3cccn3C)c2)CN1C(=O)[C@@H](NC(=O)OC(C)(C)C)C(C)(C)C)C(=O)NS(=O)(=O)C1CC1 [Compound 434] | < 100 nM | 100 to 1000 nM |  | 
26 | C=C[C@@H]1C[C@]1(NC(=O)[C@@H]1C[C@@H](Oc2cccc(-c3ccoc3)n2)CN1C(=O)[C@@H](NC(=O)OC(C)(C)C)C(C)(C)C)C(=O)NS(=O)(=O)C1CC1 [Compound 435] | < 100 nM | 100 to 1000 nM |  | 
27 | C=C[C@@H]1C[C@]1(NC(=O)[C@@H]1C[C@@H](Oc2cccc(-c3ccccc3)n2)CN1C(=O)[C@@H](NC(=O)OC(C)(C)C)C(C)(C)C)C(=O)NS(=O)(=O)C1CC1 [Compound 436] | < 100 nM | 100 to 1000 nM |  | 
28 | C=C[C@@H]1C[C@]1(NC(=O)[C@@H]1C[C@@H](Oc2cc(C)nc(-c3ccccc3)c2)CN1C(=O)[C@@H](NC(=O)OC(C)(C)C)C(C)(C)C)C(=O)NS(=O)(=O)C1CC1 [Compound 437] | < 100 nM | 100 to 1000 nM |  | 
29 | C=C[C@@H]1C[C@]1(NC(=O)[C@@H]1C[C@@H](Oc2cc(C)nc(-c3cccs3)c2)CN1C(=O)[C@@H](NC(=O)OC(C)(C)C)C(C)(C)C)C(=O)NS(=O)(=O)C1CC1 [Compound 438] | < 100 nM | 100 to 1000 nM |  | 
30 | C=CC1CC1(NC(=O)[C@@H]1C[C@@H](Oc2cc(C(F)(F)F)nc3ccc(F)cc23)CN1C(=O)[C@@H](NC(=O)OC(C)(C)C)C(C)(C)C)C(=O)NS(=O)(=O)C1CC1 (stereo partly shown) [Compound 450] | < 100 nM | 100 to 1000 nM |  | 
31 | C=CC1CC1(NC(=O)[C@@H]1C[C@@H](OCc2ccc3ccccc3c2)CN1C(=O)[C@@H](NC(=O)OC(C)(C)C)C(C)(C)C)C(=O)NS(C)(=O)=O (stereo partly shown) [Compound 454] | 100 to 1000 nM | 1000 to 10000 nM |  | 
32 | alpha-interferon and ribavirin |  |  | 40% | 
33 | pegylated alpha-interferon |  |  |  | superior to unmodified alpha-interferon
